Assay results published in the supplement of paper PMC11451515.

Experiments:
Details in all cases: 48 h
NOMO1 [1] = assay: AUC of viability dose-response curve (% viability x log10 dose units); higher = less sensitive
Summary of the method: (§1)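 Medium-adapted leukemia cells in 1536-well plates, at 500 or 1000 cells/well, were incubated for 48 h at 37°C with library compounds in DMSO at 11 threefold doses from 47 μM to 0.79 nM. CellTiter-Glo One luminescence normalised per plate to DMSO and cell-free wells was fitted with a four-parameter log-logistic model over log10 doses. Area under the curve was integrated from this fit by trapezoidal rule, with curves beyond full viability scaled and failed quality-control curves removed.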

P12-Ichikawa [2] = assay: as above
Summary of the method: as §1

SEM cells [3] = assay: as above
Summary of the method: as §1

SEM cells [4] = assay: cell viability relative to DMSO control; higher = less cytotoxic
Summary of the method: (§2)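 Cells were incubated for 48 h at 37°C before CellTiter-Glo One luminescence was read. The cells were NOMO1 or SEM (500 cells/well) or P12-Ichikawa (1000 cells/well) leukemia cells, adapted for at least four passages in each medium and seeded in 1536-well plates (5 μl). Dosing used library compounds in DMSO applied by pin over 11 threefold points, 47 μM to 0.79 nM. Viability is the per-plate percentage of DMSO wells, with cell-free wells as background.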

NOMO1 [5] = assay: as above
Summary of the method: as §2

P12-Ichikawa [6] = assay: as above
Summary of the method: as §2

O=C(CCCCCCNC(=O)c1cnc(N(c2ccccc2)c2ccccc2)nc1)NO
AUC of viability dose-response curve
Details	NOMO1 [1]	P12-Ichikawa [2]	SEM cells [3]
HPLM + 10% dialyzed FBS	417	393	399
RPMI 5 mM glucose + 10% FBS	422	386	390
RPMI 5 mM glucose + 10% dialyzed FBS	426	382	392

O=C(N[C@@H](c1ccccc1)[C@@H]1CCCCN1)c1cccc(C(F)(F)F)c1Cl
AUC of viability dose-response curve
Details	NOMO1 [1]	P12-Ichikawa [2]	SEM cells [3]
HPLM + 10% dialyzed FBS	444	465	461
RPMI 5 mM glucose + 10% FBS	462	465	450
RPMI 5 mM glucose + 10% dialyzed FBS	408	464	407

CC(C)(O)[C@H]1CC[C@@](C)([C@H]2[C@@H](O)C[C@@]3(C)[C@@H]4C[C@H](O[C@@H]5O[C@H](CO)[C@@H](O)[C@H](O)[C@H]5O)[C@H]5C(C)(C)[C@@H](O[C@@H]6OC[C@@H](O)[C@H](O)[C@H]6O)CC[C@@]56C[C@@]46CC[C@]23C)O1
cell viability [%], SEM cells [4]
Details	HPLM + 10% dialyzed FBS	RPMI 5 mM glucose + 10% FBS
0.000781 µM	118	119
0.00234 µM	118	123
0.00702 µM	121	133
0.0211 µM	124	120
0.0632 µM	128	124
0.19 µM	126	123
0.569 µM	129	130
1.71 µM	117	121
5.12 µM	89.2	108
15.4 µM	109	105
46.1 µM	106	128

AUC of viability dose-response curve
Details	NOMO1 [1]	P12-Ichikawa [2]	SEM cells [3]
HPLM + 10% dialyzed FBS	464	456	454
RPMI 5 mM glucose + 10% FBS	446	451	465
RPMI 5 mM glucose + 10% dialyzed FBS	449	450	466

COc1ccc(COc2cc3oc(=O)c4cc(C(C)O)ccc4c3cc2OC)cc1 (stereo not drawn)
AUC of viability dose-response curve
Details	NOMO1 [1]	P12-Ichikawa [2]	SEM cells [3]
HPLM + 10% dialyzed FBS	446	457	451
RPMI 5 mM glucose + 10% FBS	449	444	450
RPMI 5 mM glucose + 10% dialyzed FBS	455	434	461

CC1=CC=C2N=C(NC(=O)CS\C3=N\C4=C(\SCC4)C(=O)N3C5=CC=CC=C5)SC2=C1
AUC of viability dose-response curve
Details	HPLM + 10% dialyzed FBS	RPMI 5 mM glucose + 10% FBS	RPMI 5 mM glucose + 10% dialyzed FBS
P12-Ichikawa [2]	444	430	435
SEM cells [3]	424	421	446

CN(C)Cc1c(C(=O)NCCOc2ccc(C(=O)NO)cc2)oc2ccccc12
AUC of viability dose-response curve
Details	NOMO1 [1]	P12-Ichikawa [2]	SEM cells [3]
HPLM + 10% dialyzed FBS	366	347	324
RPMI 5 mM glucose + 10% FBS	372	345	326
RPMI 5 mM glucose + 10% dialyzed FBS	375	357	332

Cc1ccc([N+](=O)[O-])cc1[S+](=O)([O-])N(C)/N=C/c1cnc2ccc(Br)cn12
cell viability [%]
Details	NOMO1 [5]	P12-Ichikawa [6]	SEM cells [4]
HPLM + 10% dialyzed FBS, 0.000781 µM	110	120	106
HPLM + 10% dialyzed FBS, 0.00234 µM	116	110	118
HPLM + 10% dialyzed FBS, 0.00702 µM	107	113	96.1
HPLM + 10% dialyzed FBS, 0.0211 µM	89.8	118	75.7
HPLM + 10% dialyzed FBS, 0.0632 µM	56.5	108	74.5
HPLM + 10% dialyzed FBS, 0.19 µM	12	50.1	13.9
HPLM + 10% dialyzed FBS, 0.569 µM	6.54	20.2	8.58
HPLM + 10% dialyzed FBS, 1.71 µM	5.77	7.63	5.5
HPLM + 10% dialyzed FBS, 5.12 µM	4.83	9.25	5.52
HPLM + 10% dialyzed FBS, 15.4 µM	4.05	9.2	4.94
HPLM + 10% dialyzed FBS, 46.1 µM	3.68	4.27	4.47
RPMI 5 mM glucose + 10% FBS, 0.000781 µM	121	114	–
RPMI 5 mM glucose + 10% FBS, 0.00234 µM	105	106	–
RPMI 5 mM glucose + 10% FBS, 0.00702 µM	95.9	112	–
RPMI 5 mM glucose + 10% FBS, 0.0211 µM	98.7	113	–
RPMI 5 mM glucose + 10% FBS, 0.0632 µM	84.6	95.6	–
RPMI 5 mM glucose + 10% FBS, 0.19 µM	17.3	40.9	–
RPMI 5 mM glucose + 10% FBS, 0.569 µM	7.83	15.2	–
RPMI 5 mM glucose + 10% FBS, 1.71 µM	5.79	5.49	–
RPMI 5 mM glucose + 10% FBS, 5.12 µM	5.05	6.55	–
RPMI 5 mM glucose + 10% FBS, 15.4 µM	4.32	8.88	–
RPMI 5 mM glucose + 10% FBS, 46.1 µM	4.08	3.76	–
RPMI 5 mM glucose + 10% dialyzed FBS, 0.000781 µM	102	119	112
RPMI 5 mM glucose + 10% dialyzed FBS, 0.00234 µM	93.9	122	99.8
RPMI 5 mM glucose + 10% dialyzed FBS, 0.00702 µM	100	111	92.9
RPMI 5 mM glucose + 10% dialyzed FBS, 0.0211 µM	94.2	115	95.3
RPMI 5 mM glucose + 10% dialyzed FBS, 0.0632 µM	76.1	91.3	77.1
RPMI 5 mM glucose + 10% dialyzed FBS, 0.19 µM	19.2	51	19.8
RPMI 5 mM glucose + 10% dialyzed FBS, 0.569 µM	5.29	24.6	6.67
RPMI 5 mM glucose + 10% dialyzed FBS, 1.71 µM	4.54	9.55	5.43
RPMI 5 mM glucose + 10% dialyzed FBS, 5.12 µM	4.24	10.3	4.76
RPMI 5 mM glucose + 10% dialyzed FBS, 15.4 µM	4	12.4	4.76
RPMI 5 mM glucose + 10% dialyzed FBS, 46.1 µM	2.94	5.41	3.83

AUC of viability dose-response curve
Details	NOMO1 [1]	P12-Ichikawa [2]	SEM cells [3]
HPLM + 10% dialyzed FBS	196	250	203
RPMI 5 mM glucose + 10% FBS	223	240	207
RPMI 5 mM glucose + 10% dialyzed FBS	217	244	222

CO[C@@]12[C@H](COC(N)=O)C/3=C(N1C[C@@H]4N[C@H]24)/C(=O)/C(=C(N)\C3=O)C
cell viability [%]
Details	HPLM + 10% dialyzed FBS	RPMI 5 mM glucose + 10% FBS	RPMI 5 mM glucose + 10% dialyzed FBS
P12-Ichikawa [6], 0.000781 µM	117	–	–
P12-Ichikawa [6], 0.00234 µM	123	–	–
P12-Ichikawa [6], 0.00702 µM	125	–	–
P12-Ichikawa [6], 0.0211 µM	126	–	–
P12-Ichikawa [6], 0.0632 µM	119	–	–
P12-Ichikawa [6], 0.19 µM	116	–	–
P12-Ichikawa [6], 0.569 µM	112	–	–
P12-Ichikawa [6], 1.71 µM	121	–	–
P12-Ichikawa [6], 5.12 µM	118	–	–
P12-Ichikawa [6], 15.4 µM	118	–	–
P12-Ichikawa [6], 46.1 µM	99.2	–	–
SEM cells [4], 0.000781 µM	123	91.7	131
SEM cells [4], 0.00234 µM	123	97.2	121
SEM cells [4], 0.00702 µM	123	90.7	124
SEM cells [4], 0.0211 µM	114	96.2	112
SEM cells [4], 0.0632 µM	115	90	121
SEM cells [4], 0.19 µM	115	97.1	112
SEM cells [4], 0.569 µM	125	75.5	116
SEM cells [4], 1.71 µM	121	95.3	125
SEM cells [4], 5.12 µM	95.7	86.5	118
SEM cells [4], 15.4 µM	108	92.2	114
SEM cells [4], 46.1 µM	81.7	74	85.3

AUC of viability dose-response curve
Details	NOMO1 [1]	P12-Ichikawa [2]	SEM cells [3]
HPLM + 10% dialyzed FBS	449	472	453
RPMI 5 mM glucose + 10% FBS	453	443	431
RPMI 5 mM glucose + 10% dialyzed FBS	446	419	435
